Measured values published in ChEMBL document CHEMBL1136186, “Microcystin analogues comprised only of Adda and a single additional amino acid retain moderate activity as PP1/PP2A inhibitors” (Bioorg Med Chem Lett, 2003).
*1 amine or outer side, *2 acyl side, *3 side chain or, on linkers, in order; H or OH if unused. Where a SMILES comes first, the peptide text is derived from it. Bridges are numbered along the chain shown (N, C = ends). [ ]: non-standard residue; d: D form. Adda = CO[C@@H](Cc1ccccc1)[C@@H](C)/C=C(C)/C=C/[C@H](N[*:1])[C@H](C)C(=O)[*:2]; dAsp(3S-Me) = C[C@H](C(=O)[*:3])[C@@H](N[*:1])C(=O)[*:2]; d(γGlu) = O=C(O)[C@@H](CCC(=O)[*:2])N[*:1]; NMeDha = C=C(NC)C(=O)O

Columns and labels:
[1] = biological target: T1, Serine/threonine-protein phosphatase 2A catalytic subunit alpha isoform (Bos taurus, UniProt P67774); assay: Inhibitory concentration against protein phosphatase 2A (PP2A) using pNPP assay; design: species or system Oryctolagus cuniculus
T1 sequence (P67774 whole entry, canonical isoform): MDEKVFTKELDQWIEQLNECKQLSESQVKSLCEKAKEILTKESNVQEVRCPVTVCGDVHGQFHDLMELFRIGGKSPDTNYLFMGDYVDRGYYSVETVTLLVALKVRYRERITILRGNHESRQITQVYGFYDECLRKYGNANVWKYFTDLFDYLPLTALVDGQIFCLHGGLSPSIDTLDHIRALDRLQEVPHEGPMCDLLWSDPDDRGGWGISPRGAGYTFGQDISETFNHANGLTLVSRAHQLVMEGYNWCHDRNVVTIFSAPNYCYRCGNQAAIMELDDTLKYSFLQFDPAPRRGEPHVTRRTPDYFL

Oryctolagus cuniculus = organism: Oryctolagus cuniculus; assay: Ratio of inhibition of PP1 to that of inhibition of PP2A using phosphorylase-a assay
[2] = biological target: T1, Serine/threonine-protein phosphatase 2A catalytic subunit alpha isoform; assay: Inhibitory concentration against protein phosphatase 2A (PP2A) using phosphorylase-a assay; design: species or system Oryctolagus cuniculus

SMILES | IC50 [1] | Ratio (Oryctolagus cuniculus) | IC50 [2]
CO[C@@H](Cc1ccccc1)[C@@H](C)/C=C(C)/C=C/[C@H](NC(C)=O)[C@H](C)C(=O)N1CCCC1 | > 100 µM | – | –
CO[C@@H](Cc1ccccc1)[C@@H](C)/C=C(C)/C=C/[C@H](NC(C)=O)[C@H](C)C(=O)N1C[C@H](C(=O)O)C[C@H]1C(=O)O | > 100 µM | – | –
CO[C@@H](Cc1ccccc1)[C@@H](C)/C=C(C)/C=C/[C@H](NC(C)=O)[C@H](C)C(=O)N1CCC[C@H]1C(=O)O | > 100 µM | – | –
CO[C@@H](Cc1ccccc1)[C@@H](C)/C=C(C)/C=C/[C@H](NC(C)=O)[C@H](C)C(=O)N1CCC[C@@H]1C(=O)O | > 25 µM | 2 | –
CO[C@@H](Cc1ccccc1)[C@@H](C)/C=C(C)/C=C/[C@H](NC(C)=O)[C@H](C)C(=O)N1C[C@@H](C(=O)O)C[C@@H]1C(=O)O | > 100 µM | – | –
COC(=O)[C@@H]1CCCN1C(=O)[C@@H](C)[C@H](/C=C/C(C)=C/[C@H](C)[C@H](Cc1ccccc1)OC)NC(C)=O | > 100 µM | – | –
CC(=O)N[C@@H](/C=C/C(C)=C/c1ccc(-c2ccccc2)cc1)[C@H](C)C(=O)N[C@H](C)C(=O)O | > 100 µM | – | –
CO[C@@H](Cc1ccccc1)[C@@H](C)/C=C(C)/C=C/[C@H](NC(C)=O)[C@H](C)C(=O)N1[C@@H](C(=O)O)CC[C@H]1C(=O)O | 10 µM | > 5 | –
CO[C@@H](Cc1ccccc1)[C@@H](C)/C=C(C)/C=C/[C@H](NC(C)=O)[C@H](C)C(=O)N1C[C@H](O[Si](C(C)C)(C(C)C)C(C)C)C[C@@H]1C(=O)O | > 63 µM | > 2 | –
CO[C@@H](Cc1ccccc1)[C@@H](C)/C=C(C)/C=C/[C@H](NC(C)=O)[C@H](C)C(=O)N1C[C@H](C(=O)O)C[C@@H]1C(=O)O | > 100 µM | – | –
CC(=O)N[C@@H](/C=C/C(C)=C/c1ccccc1Cc1ccccc1)[C@H](C)C(=O)N[C@H](C)C(=O)O | > 100 µM | – | –
CO[C@@H](Cc1ccccc1)[C@@H](C)/C=C(C)/C=C/[C@H](NC(C)=O)[C@H](C)C(=O)N[C@@H](C)C(=O)O | – | 1.22 | 7800 nM
COC(=O)[C@H]1CCCN1C(=O)[C@@H](C)[C@H](/C=C/C(C)=C/[C@H](C)[C@H](Cc1ccccc1)OC)NC(C)=O | > 100 µM | – | –
CO[C@@H](Cc1ccccc1)[C@@H](C)/C=C(C)/C=C/[C@H](NC(C)=O)[C@H](C)C(=O)N[C@H](C)C(=O)O | 7 µM | 6 | 160 nM
C=C1C(=O)N[C@H](C)C(=O)N[C@@H](CC(C)C)C(=O)N[C@@H](C(=O)O)[C@H](C)C(=O)N[C@@H](C)C(=O)N[C@@H](/C=C/C(C)=C/[C@H](C)[C@H](Cc2ccccc2)OC)[C@H](C)C(=O)N[C@@H](C(=O)O)CCC(=O)N1C (A[Adda][d(γGlu)][NMeDha][dA]L[dAsp(3S-Me)]-OH; lactam N-7) | 0.003 µM | 1 | 0.3 nM
CO[C@@H](Cc1ccccc1)[C@@H](C)/C=C(C)/C=C/[C@H](NC(C)=O)[C@H](C)C(=O)NCC(=O)O | – | 1.11 | 500 nM
CO[C@@H](Cc1ccccc1)[C@@H](C)/C=C(C)/C=C/[C@H](NC(C)=O)[C@H](C)C(=O)N(CC(=O)O)CC(=O)O | > 100 µM | – | –
CO[C@@H](Cc1ccccc1)[C@@H](C)/C=C(C)/C=C/[C@H](NC(C)=O)[C@H](C)C(=O)N1[C@H](C(=O)O)CC[C@H]1C(=O)O | > 39 µM | > 1.3 | –
CC(=O)N[C@@H](/C=C/C(C)=C/CCCc1ccccc1)[C@H](C)C(=O)N[C@H](C)C(=O)O | > 100 µM | – | –
